Laboratory results published in ChEMBL document CHEMBL1201862, “PubChem BioAssay data set” (2004).
The source made the active and inactive calls.

What was measured:
[1] = test system: Streptococcus sp. 'group A'; assay: growth inhibition of control SK(-) GAS strain, dose response, counter-screen for streptokinase expression inhibitor project, luminescence, kanamycin, BacTiterGlo, confirmation (AID 1900); format: functional, organism-based
Streptococcus = assay: Group A Streptococcus viability loss, dose response, counter-screen for streptokinase expression inhibitor project, luminescence, BacTiterGlo (AID 1915); format: functional, organism-based;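 note: potency for reduction of bacterial viability or growth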
[2] = molecular target: T1, Methionyl-tRNA synthetase, putative (Trypanosoma brucei brucei, UniProt Q38C91); format: functional, Trypanosoma brucei brucei strain 927/4 GUTat10.1
T1 sequence (Q38C91 whole entry): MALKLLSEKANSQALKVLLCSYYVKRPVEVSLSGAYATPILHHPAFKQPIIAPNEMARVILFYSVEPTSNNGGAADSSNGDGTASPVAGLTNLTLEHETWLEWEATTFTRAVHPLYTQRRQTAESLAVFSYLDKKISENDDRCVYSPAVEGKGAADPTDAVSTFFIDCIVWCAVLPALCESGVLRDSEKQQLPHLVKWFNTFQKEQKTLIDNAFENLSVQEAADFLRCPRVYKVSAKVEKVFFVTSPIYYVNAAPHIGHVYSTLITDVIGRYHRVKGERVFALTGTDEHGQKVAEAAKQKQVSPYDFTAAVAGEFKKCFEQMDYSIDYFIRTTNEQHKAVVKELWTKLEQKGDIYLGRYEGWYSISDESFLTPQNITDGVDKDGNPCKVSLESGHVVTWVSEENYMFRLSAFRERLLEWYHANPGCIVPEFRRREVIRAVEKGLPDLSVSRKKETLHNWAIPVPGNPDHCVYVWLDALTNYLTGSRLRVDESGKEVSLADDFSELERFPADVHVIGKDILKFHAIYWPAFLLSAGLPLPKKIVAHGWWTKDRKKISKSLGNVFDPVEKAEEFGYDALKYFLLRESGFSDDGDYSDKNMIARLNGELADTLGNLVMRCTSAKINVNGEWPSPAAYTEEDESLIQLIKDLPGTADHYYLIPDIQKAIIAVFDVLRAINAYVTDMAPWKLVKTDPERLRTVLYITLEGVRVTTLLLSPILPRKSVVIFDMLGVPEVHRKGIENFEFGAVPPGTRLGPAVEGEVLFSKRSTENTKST

Streptokinase A = molecular target: T2, Streptokinase A (Streptococcus pyogenes serotype M1, UniProt P10520); assay: S. pyogenes streptokinase expression inhibitors, potency, dose response, plasminogen activation absorbance, OD405 (AID 1914); format: functional, Streptococcus pyogenes M1 GAS;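 note: secreted streptokinase activity via plasminogen activation per viability signal from cell pellet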
T2 sequence (P10520 whole entry): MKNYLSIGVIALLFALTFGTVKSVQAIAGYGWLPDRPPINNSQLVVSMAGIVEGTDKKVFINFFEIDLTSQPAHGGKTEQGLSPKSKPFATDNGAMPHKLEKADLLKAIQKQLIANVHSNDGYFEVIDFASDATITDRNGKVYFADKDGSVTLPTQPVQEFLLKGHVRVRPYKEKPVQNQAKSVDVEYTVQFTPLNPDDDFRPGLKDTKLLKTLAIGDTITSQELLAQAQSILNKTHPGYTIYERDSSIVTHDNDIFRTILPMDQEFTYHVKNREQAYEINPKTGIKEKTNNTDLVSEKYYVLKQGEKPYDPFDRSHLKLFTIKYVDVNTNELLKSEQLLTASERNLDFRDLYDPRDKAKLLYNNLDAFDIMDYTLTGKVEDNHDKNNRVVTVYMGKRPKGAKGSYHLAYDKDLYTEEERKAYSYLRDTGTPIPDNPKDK

[3] = Counterscreen for inhibitors of Trypanosoma brucei methionyl tRNA synthetase (MetRS): Luminescence-based cell-based high throughput dose response assay to identify compounds that are cytotoxic to Jurkat human T lymphocyte cells.; format: functional
[4] = molecular target: T1, Methionyl-tRNA synthetase, putative; format: functional, Trypanosoma brucei brucei strain 927/4 GUTat10.1; remark: listed apart in the source
[5] = molecular target: T3, Aryl hydrocarbon receptor (Homo sapiens, UniProt P35869); settings: Potency;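 note: confirmatory quantitative high-throughput screen measuring activation of the AhR signaling pathway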
T3 sequence (P35869 whole entry): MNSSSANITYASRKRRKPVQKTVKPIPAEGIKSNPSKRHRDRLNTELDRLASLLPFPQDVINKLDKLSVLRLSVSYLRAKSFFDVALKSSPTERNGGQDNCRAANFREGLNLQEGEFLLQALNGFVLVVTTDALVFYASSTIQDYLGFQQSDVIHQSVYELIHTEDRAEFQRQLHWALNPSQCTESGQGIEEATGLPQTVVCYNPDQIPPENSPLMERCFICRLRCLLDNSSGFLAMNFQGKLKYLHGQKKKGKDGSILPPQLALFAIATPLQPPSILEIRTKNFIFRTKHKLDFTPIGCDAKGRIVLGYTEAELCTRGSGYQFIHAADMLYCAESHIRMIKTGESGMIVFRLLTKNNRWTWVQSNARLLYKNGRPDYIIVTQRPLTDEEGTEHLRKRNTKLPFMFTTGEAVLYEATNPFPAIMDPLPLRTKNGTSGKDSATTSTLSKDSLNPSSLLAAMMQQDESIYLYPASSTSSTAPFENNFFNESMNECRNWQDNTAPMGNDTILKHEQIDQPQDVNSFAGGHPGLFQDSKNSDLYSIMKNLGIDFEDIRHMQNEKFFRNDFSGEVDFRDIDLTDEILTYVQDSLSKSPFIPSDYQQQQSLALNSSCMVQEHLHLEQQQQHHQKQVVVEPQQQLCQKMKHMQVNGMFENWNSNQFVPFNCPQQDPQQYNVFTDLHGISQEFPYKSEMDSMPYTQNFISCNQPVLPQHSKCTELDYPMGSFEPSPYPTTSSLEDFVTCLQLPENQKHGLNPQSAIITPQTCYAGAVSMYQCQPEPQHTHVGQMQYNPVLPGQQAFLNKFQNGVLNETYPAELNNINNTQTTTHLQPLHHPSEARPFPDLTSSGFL

Beta Lactamase = Beta Lactamase (Pseudomonas aeruginosa, UniProt Q932Y6); assay: beta-lactamase reporter inhibitor potency, dose response, artefact control for NOD2-RIPK2 interaction inhibitor project, BLA reporter cells, FRET fluorescence (AID 651552); format: functional, cell-based
Beta Lactamase, sequence (Q932Y6 whole entry, the tested form may be a part): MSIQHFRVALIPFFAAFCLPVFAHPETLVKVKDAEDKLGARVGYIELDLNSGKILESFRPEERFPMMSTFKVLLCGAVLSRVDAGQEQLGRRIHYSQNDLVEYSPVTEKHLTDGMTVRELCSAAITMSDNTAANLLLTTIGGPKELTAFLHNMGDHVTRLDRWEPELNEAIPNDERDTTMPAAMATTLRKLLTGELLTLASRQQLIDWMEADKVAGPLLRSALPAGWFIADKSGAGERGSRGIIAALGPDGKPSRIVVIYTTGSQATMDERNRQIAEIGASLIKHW

[6] = Fluorescence-based cell-based high throughput dose response assay for inhibitors of the interaction of nucleotide-binding oligomerization domain containing 2 (NOD2) and the receptor-interacting serine-threonine kinase 2 (RIPK2).; format: functional; settings: Homo sapiens
[7] = molecular target: Photoreceptor-specific nuclear receptor (Homo sapiens, UniProt Q9Y5X4); format: functional, cell-based;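 note: CHO-S cells with Gal4-NCOR and VP16-NR2E3 two-hybrid luciferase reporter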
Photoreceptor-specific nuclear receptor, sequence (Q9Y5X4 whole entry, the tested form may be a part): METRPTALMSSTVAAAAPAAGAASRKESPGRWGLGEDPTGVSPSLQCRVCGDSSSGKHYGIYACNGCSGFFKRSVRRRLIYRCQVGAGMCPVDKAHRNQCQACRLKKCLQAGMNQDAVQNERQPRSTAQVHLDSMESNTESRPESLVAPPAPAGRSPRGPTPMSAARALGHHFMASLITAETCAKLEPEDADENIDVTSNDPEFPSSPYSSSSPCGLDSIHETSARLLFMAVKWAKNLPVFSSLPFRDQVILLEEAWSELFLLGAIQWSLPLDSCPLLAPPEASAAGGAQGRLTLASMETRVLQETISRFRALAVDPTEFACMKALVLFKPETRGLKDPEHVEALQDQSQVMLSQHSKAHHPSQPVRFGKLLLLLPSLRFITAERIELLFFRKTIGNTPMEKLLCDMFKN

COc1ccc(Cc2nnc(S)n2NC(=O)Nc2ccc(Cl)c(Cl)c2)cc1
EC50 [1]: 3.39 µM (active)
EC50 (Streptococcus): 63.3 µM (active)
IC50 [2]: 76.2 µM (inactive)
EC50 (Streptokinase A): 20.3 µM (active)
IC50 [3]: 54.2 µM (inactive)
IC50 [4]: 17.7 µM (inactive)

Nc1c(Cl)c(Cl)c(Cl)c(Cl)c1Cl
AC50 [5]: 44.7 µM (inconclusive)

CCOC(=O)[C@]12Cc3cc(Cl)ccc3[C@H]1N(C(C)C)C(=O)c1ccccc12
IC50 (Beta Lactamase): 45.2 µM (inactive)
IC50 [6]: 2.21 µM (active)

O=C(NC(=O)N1CCN(c2cccc(Cl)c2)CC1)c1ccccc1
IC50 [7]: 4.75 µM (active)
